From patent US12246021B2, “Compounds for uses in pharmacological induction of HBF for treatment of sickle cell disease and ß-thalassemia” (Academia Sinica, priority 2019, dated 2025)

Legend:
[1] = Solubility of the compounds; assay type: physicochemical
γ-globin gene [2] = assay: γ-globin mRNA induction by quantitative RT-PCR in primary human erythroid cell culture; assay type: cell-based; conditions: 3 days, primary human erythroid cells
Experimental: (§1) Peripheral blood samples were purchased from the Taipei Blood Center. The concentrated blood was diluted 1:5 (V/V) in phosphate-buffered saline (PBS) and distributed in a thin layer on Ficoll-paque PLUS ([…]) (GE Healthcare) in a SepMate column (STEMCELL). After centrifugation at 1200 g for 10 minutes, the cells in the inter-phase region were collected. The collected cells were washed with PBS and centrifuged at low speed three times. The remaining mononuclear cells were expanded in Phase I medium containing 1×SFEM (STEMCELL), 100 ng/ml SCF, 20 ng/ml IL-3, 20 ng/ml IL-6, and 100 ng/ml Flt3-L at 37° C. in an incubator with 5% CO2 for 7 days. […]
(§2) After 3 days of compound treatment, total RNA was extracted by a Quick-RNA miniprep kit (Zymo) and reverse-transcription was performed using Maxima H Minus Reverse Transcriptase (ThermoFisher Scientific) according to the manufacturer's instructions. Quantitative PCR was performed on a LightCycler system with SYBR green master mix following the manufacturer's instructions (Roche). The relative quantitative RT-PCR data was normalized to the Cq number of […] and compared to a mock control.
Compound AS-28 was designed based on the pharmacophore of the HbF-inducing compound TN1 (FIGS. 1A-1B). The efficacy of γ-globin gene induction by AS-28 treatment using a primary human erythroid cell culture system was evaluated. […]

[3] = tested on: primary human erythroid cells; assay: Cell viability assay (AlamarBlue) in primary human erythroid cell culture; assay type: cell-based; conditions: 3 days
Experimental: as §1, with “days. The expanded mononuclear cells were further differentiated in Phase II medium containing 1×SFEM (StemSpan), 20 ng/ml SCF, 5 ng/ml IL-3, 1 U/ml EPO for another 7 days.” for “days.”
Cell viability was assessed using AlamarBlue reagent (Invitrogen). […] Cell viability was evaluated using a multi-label counter (Ex 530-560 nm, Em 590 nm) (PerkinElmer).
Compound AS-28 was designed based on the pharmacophore of the HbF-inducing compound TN1 (FIGS. 1A-1B). The efficacy of γ-globin gene induction by AS-28 treatment using a primary human erythroid cell culture system was evaluated. After two weeks of in vitro erythroid cell differentiation, cells were treated with AS-28 for three days and then harvested for quantitative RT-PCR analysis and cell viability assay.

γ-globin gene [4] = assay: γ-globin mRNA induction in hydroxyurea-resistant primary human erythroid cells; assay type: cell-based; conditions: 0.5 μM, HU-resistant primary human erythroid cells
Experimental: as §1, with “days. The expanded mononuclear cells were further differentiated in Phase II medium containing 1×SFEM (StemSpan), 20 ng/ml SCF, 5 ng/ml IL-3, 1 U/ml EPO for another 7 days.” for “days.”
After 3 days of compound treatment, total RNA was extracted by a Quick-RNA miniprep kit (Zymo) and reverse-transcription was performed using Maxima H Minus Reverse Transcriptase (ThermoFisher Scientific) according to the manufacturer's instructions. Quantitative PCR was performed on a LightCycler system with SYBR green master mix following the manufacturer's instructions (Roche). The relative quantitative RT-PCR data was normalized to the Cq number of […] and compared to a mock control. […]

[5] = tested on: HU-resistant primary human erythroid cells; assay: Cell viability in hydroxyurea-resistant primary human erythroid cells; assay type: cell-based; conditions: 0.5 μM
Experimental: (§3) Peripheral blood samples were purchased from the Taipei Blood Center. The concentrated blood was diluted 1:5 (V/V) in phosphate-buffered saline (PBS) and distributed in a thin layer on Ficoll-paque PLUS ([…]) (GE Healthcare) in a SepMate column (STEMCELL). After centrifugation at 1200 g for 10 minutes, the cells in the inter-phase region were collected. The collected cells were washed with PBS and centrifuged at low speed three times. The remaining mononuclear cells were expanded in Phase I medium containing 1×SFEM (STEMCELL), 100 ng/ml SCF, 20 ng/ml IL-3, 20 ng/ml IL-6, and 100 ng/ml Flt3-L at 37° C. in an incubator with 5% CO2 for 7 days. The expanded mononuclear cells were further differentiated in Phase II medium containing 1×SFEM (StemSpan), 20 ng/ml SCF, 5 ng/ml IL-3, 1 U/ml EPO for another 7 days. The differentiated erythroid cells were treated with indicated compounds of different dosages with a seeding density of 5×10^5 cells/ml for another 3 days.
Cell viability was assessed using AlamarBlue reagent (Invitrogen). After 3 days of treatment, 100 μl of treated cell culture was transferred into a 96-well plate and 1/10 volume of AlamarBlue reagent was added and the cell culture was incubated overnight at 37° C. Cell viability was evaluated using a multi-label counter (Ex 530-560 nm, Em 590 nm) (PerkinElmer). […]

BCL11A protein = assay: Western blot of BCL11A protein in primary human erythroid cells; assay type: cell-based; conditions: for expression level of BCL11A protein (in words): 3 days, AS-28 at 0.5 μM and 1 μM
Experimental: as §3
After 3 days of treatment, total protein was extracted by modified RIPA (50 mM Tris-HCl pH7.8, 150 mM NaCl, 1% NP-40, 0.5% sodium deoxycholate, 0.1% SDS, 1 mM EGTA, 5 mM EDTA, 10 mM NaF, 1 mM […] and 1× complete EDTA-free Protease Inhibitor Cocktail). 30 μg of protein extracts were separated by 10% SDS-PAGE and the resulting gel was blotted onto PVDF membrane. After blocking with 5% non-fat milk in TBST, the membrane was incubated overnight with primary antibody against BCL11A or β-actin at 4° C. After incubating with horseradish peroxidase-conjugated secondary antibodies and washing the blot, the signals of indicated proteins were visualized by ECL (PerkinElmer) following the manufacturer's protocol.
BCL11A has been reported as a key negative regulator of γ-globin gene expression^23. Knockdown of BCL11A dramatically increases expression of the γ-globin gene. To investigate whether HbF-inducing agents activate γ-globin gene expression by modulating BCL11A protein levels, primary human erythroid cells were treated with known HbF-inducing agents (HU, NaB, and AS-28 (0.5 μM and 1 μM)), and also Compound II, SS-2394, Compound 3, Compound 8, and then harvested for Western blot analysis (FIG. 4; FIG. 11).

SCD mice = assay: Oral AS-28 in SCD mice: blood count, HbF HPLC, F-cells, blood smear; assay type: in vivo; conditions: 50, 75 or 100 mg/kg oral gavage twice per day, 5 days per week, 4 weeks
Experimental: Sickle cell disease mice (B6; 129-Hba^tm1(HBA)Tow, Hbb^tm2(HBG1,HBB*)Tow/J) were purchased from Jackson Laboratory and were bred at the AS Core, Academia Sinica. Mice of 6-8 weeks old were used for experiments. Treatment groups received vehicle [20% (2-Hydroxypropyl)-β-cyclodextrin] plus AS-28 (50 mg/kg, 75 mg/kg or 100 mg/kg), which was administered by oral gavage twice per day, 5 days per week, for 4 weeks.
Blood was collected by submandibular blood collection and analysis was performed using a ProCyte Dx automatic analyzer.
10 μl of whole blood was washed twice with PBS and then fixed with 0.05% glutaraldehyde for 10 minutes. After fixation, the cells were washed twice with PBS and then permeabilized by adding cold 0.1% Triton X-100 for 5 minutes. Cells were washed twice with 0.1% BSA/PBS and stained with PE-HbF antibody (BD) for 40 minutes at room temperature (with protection from light). Finally, the cells were washed three times with 0.1% BSA/PBS and passed through a […] cell strainer (Falcon). F-cell % was analyzed by flow cytometry (LSRII-18P, BD).
50 μl of whole blood was lysed in 200 μl ddH2O and centrifuged for 5 minutes at 13,000 rpm to extract the hemolysate. HPLC was performed according to a previously described protocol^22.
For hypoxia treatment, whole blood was incubated in a hypoxic incubator chamber (3% 02) for 30 minutes. […] of whole blood (with or without hypoxia) was used to make blood smears on slides. Slides were air-dried and then stained with Liu-stain before quantifying the percentage of sickle-shaped cells.
To further evaluate the therapeutic potential of AS-28 for treating hemoglobinopathies, SCD mice (an SCD disease animal model generated by the laboratory of Prof. Tim Townes, University of Alabama) were used to examine whether AS-28 treatment could relieve anemia in SCD mice. Different dosages of AS-28 were administered to 6-8 week-old SCD mice over four weeks. After four weeks of oral gavage, blood samples from the treated SCD mice were collected for several biochemical analyses (FIG. 5). […] Reticulocyte (RET), white blood cell (WBC) and neutrophil (NEUT) values were equivalent between AS-28-treated and mock-treated SCD mice. […] A diagnostic indicator of SCD is the characteristic sickle-shaped morphology of red blood cells under hypoxia.

GATA1 = assay: RT-qPCR of γ-globin transcription regulators in human primary erythroid cells: GATA1; assay type: cell-based; conditions: AS-28 0.5 μM
Experimental: (§4) The total RNAs were isolated from human primary erythroid cells in culture without (Mock) and with (AS-28) treatment by AS-28, and analyzed by RT-qPCR. N=4 biological experiments, *, p<0.05; ***, p<0.001.
as §2
(§5) In order to examine whether AS-28 would cause cellular toxicity, the gene expression profiles of human primary erythroid cells in culture were compared by RNA-sequence analysis. Several candidate genes, encoding known γ globin gene regulators were selected from the gene list of RNA-sequence data (fold change >1.4) for validation by RT-qPCR (FIG. 7). […] In addition, AS-28 inhibited the expression of γ globin repressor c-MYB (0.5-fold).

NFE2L2 = assay: RT-qPCR of γ-globin transcription regulators in human primary erythroid cells: NFE2L2; assay type: cell-based; conditions: AS-28 0.5 μM
Experimental: as §4, §2, §5

c-MYB = assay: RT-qPCR of γ-globin transcription regulators in human primary erythroid cells: c-MYB; assay type: cell-based; conditions: AS-28 0.5 μM
Experimental: as §4, §2, §5

[6] = tested on: human primary erythroid cells; assay: RNA-sequence gene expression profile with Ingenuity Pathways Analysis; assay type: cell-based; conditions: human primary erythroid cells treated with AS-28
Experimental: The RNA-sequence data was analyzed by Ingenuity Pathways Analysis (IPA). The top cellular pathways in the primary erythroid cells affected by AS-28 are listed here. DEGs: Fold change ≥1.4, p<0.05.
as §5
To reveal the global effect of AS-28 on human primary erythroid cells, the differentially expressed genes (DEGs) from the RNA-sequence data (fold change ≥1.4 and p<0.05) were selected for analysis by Ingenuity Pathways Analysis (IPA).

in vivo = conditions: rat
Text: The abbreviations as defined as follows: IV—intravenous; PO—per-os (oral); T1/2—half-life; CL—clearance; Vss—steady-state distribution volume; AUC(0-inf)—area under the curve; F—bioavailability; ND—not detected.

CCN1CCN(c2nc(Nc3cccc(NC(=O)C#Cc4ccc(C)cc4)c3)c3ncn(CC)c3n2)CC1 [AS-28, 3-p-Tolyl-propynoic acid {3-[9-ethyl-2-(4-ethylpiperazin-1-yl)-9H-purin-6-ylamino]phenyl}amide]
water solubility [1]: improved
γ-globin mRNA expression activation (γ-globin gene [2]; 0.5 μM): 3.5 fold
γ-globin induction (γ-globin gene [2]; 1 μM and 2 μM): reduced
cytotoxicity ([3]; 0.5 μM): without inducing significant cytotoxicity
cytotoxicity ([3]; 1 μM and 2 μM): cell cytotoxicity
γ-globin mRNA expression elevation (γ-globin gene [4]): at least 2 fold
cytotoxicity [5]: only minor cytotoxicity
expression level of BCL11A protein (in words) (BCL11A protein): significantly decreased
reduction of BCL11A protein levels (BCL11A protein; FIG. 4): 50%
reduction of BCL11A protein levels (BCL11A protein; FIG. 11): 60%
hemoglobin levels (HGB) vs mock-treated control (SCD mice): slightly increased
neutrophil (NEUT) values vs mock-treated (SCD mice): equivalent
percentage of F-cells (flow cytometry) (SCD mice): elevated
percentage of HbF (HPLC) (SCD mice): significantly increased
percentage of sickle-shaped cells in blood smears under hypoxia (SCD mice): significantly decreased
red blood cell (RBC) numbers vs mock-treated control (SCD mice): slightly increased
reticulocyte (RET) values vs mock-treated (SCD mice): equivalent
white blood cell (WBC) values vs mock-treated (SCD mice): equivalent
GATA1 expression (γ globin activator), RT-qPCR vs mock (GATA1): 1.5 fold
NFE2L2 expression (γ globin activator), RT-qPCR vs mock (NFE2L2): 1.5 fold
c-MYB expression (γ globin repressor), RT-qPCR vs mock (c-MYB): 0.5 fold
top 5 canonical pathways affected (IPA of DEGs, fold change ≥1.4, p<0.05) [6]: does not include the cell toxicity-related pathways
bioavailability (in vivo): ~25%

CCCC(=O)[O-].[Na+] [NaB, sodium butyrate, reference compound]
expression level of BCL11A protein (in words) (BCL11A protein): significantly decreased
